Measurements taken from PubChem BioAssay (NCI).
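Compound exposure: 48 hours, 5 concentrations, 96-well plates. Definition used: TGI = concentration required for complete inhibition of growth.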

Assays:
Test in all cases: NCI tumour cell line growth inhibition, 48 h
NCI-H460 lung = system: NCI-H460 lung
COLO 205 colon = system: COLO 205 colon
786-0 renal = system: 786-0 renal
NCI-H522 lung = system: NCI-H522 lung
MOLT-4 leukemia = system: MOLT-4 leukemia
UACC-62 melanoma = system: UACC-62 melanoma
OVCAR-4 ovarian = system: OVCAR-4 ovarian
OVCAR-8 ovarian = system: OVCAR-8 ovarian
K-562 leukemia = system: K-562 leukemia
UACC-257 melanoma = system: UACC-257 melanoma
HCT-15 colon = system: HCT-15 colon
CCRF-CEM leukemia = system: CCRF-CEM leukemia
MDA-MB-435 = system: MDA-MB-435
HL-60(TB) leukemia = system: HL-60(TB) leukemia
SW-620 colon = system: SW-620 colon
MDA-MB-231 breast = system: MDA-MB-231 breast
SNB-75 CNS = system: SNB-75 CNS
TK-10 renal = system: TK-10 renal
HT29 colon = system: HT29 colon

SMILES | TGI (NCI-H460 lung) [nM] | TGI (COLO 205 colon) [nM] | TGI (786-0 renal) [nM] | TGI (NCI-H522 lung) [nM] | TGI (MOLT-4 leukemia) [nM] | TGI (UACC-62 melanoma) [nM] | TGI (OVCAR-4 ovarian) [nM] | TGI (OVCAR-8 ovarian) [nM] | TGI (K-562 leukemia) [nM] | TGI (UACC-257 melanoma) [nM] | TGI (HCT-15 colon) [nM] | TGI (CCRF-CEM leukemia) [nM] | TGI (MDA-MB-435) [nM] | TGI (HL-60(TB) leukemia) [nM] | TGI (SW-620 colon) [nM] | TGI (MDA-MB-231 breast) [nM] | TGI (SNB-75 CNS) [nM] | TGI (TK-10 renal) [nM] | TGI (HT29 colon) [nM]
N=C1/C(=C/c2ccco2)C(=O)N=C2SC=NN12 | > 100000 | > 100000 | > 100000 | > 100000 | > 100000 | > 100000 | > 100000 | > 100000 | > 100000 | > 100000 | > 100000 | > 100000 | > 100000 | > 100000 | > 100000 | > 100000 | > 100000 | > 100000 | > 100000
CCCCC1CCCCCCc2[nH]c(/C=C3\N=C(c4ccc[nH]4)C=C3OC)cc21 (stereo not drawn) | 2920 | 1390 | 101 | 1380 | 44.3 | < 17.7 | 4230 | 1330 | 1280 | 2730 | 1900 | 566 | 403 | 10.3 | 1150 | 1760 | 638 | 3180 | 1110
